In patent publication US5843886A, “Method of treating or preventing Type 1 diabetes by oral administration of insulin” (Autoimmune, Inc., priority 1995, dated 1998):
Several values for one entry are separate records, joined by “and”; a condition that tells them apart may be missing. Identical values can stand only once. Entries after “also recorded” stand apart in the source; their conditions may differ.

Columns and labels:
Format in all cases: in vivo, mouse
[1] = tested on: NOD mice; test: Spontaneous diabetes in NOD mice after oral feeding
Text: NOD (non-obese diabetic mice) were obtained from Taconic Laboratories (Germantown, Mass.) at 4 weeks of age. There were a total of 30 animals in each of the groups mentioned below at the beginning of the experiment. At 41/2 weeks of age, animals were orally administered Porcine insulin (Novo Laboratories, Danbury, Conn.). Each animal received two treatments orally twice a week until 9 weeks of age. The mice were fed either saline (control) or 10 micrograms, 100 micrograms, or 1 milligram of Porcine insulin. The animals were fed (gavaged) with an 18 gauge ball-point needle (Popper and Sons, Inc., New Hyde Park, N.Y.). Beginning at 10 weeks the animals were then fed once a week for a total of 33 weeks. Beginning at 12 weeks the urine was tested weekly for the presence of glucose using Glucosuria test tape (Eli Lilly, Indianapolis, Ind.). If an animal tested 3+ or higher on the glucose urine test, a serum sample was taken and blood glucose measured using a glucose analyzer (Beckman). If the blood glucose was 220 or higher, the animals were classified as diabetic and then sacrificed. An identical experiment to Example 1 was performed in which NOD mice (14-17 per group) were fed one homogenized pancreas derived from Lewis rats in 0.5 mls PBS. […] Nonetheless, the effect is not as dramatic and complete as that seen in the animals fed insulin.

[2] = tested on: NOD mice; test: Glucose post oral insulin in fasting 7 week NOD mice; settings: for blood glucose after feeding: measured over 24 hours
Experimental: In order to determine whether any endocrinologic (i.e. direct lowering of blood sugar) effects occurred following the feeding of insulin, 7 week old NOD mice (5 mice per group) were fed 1 mg of porcine insulin or 1 mg of myelin basic protein (obtained from Pel Freez, Rogers, AR) as a control protein. Blood glucose was then measured over the next 24 hour period. As a positive control, a separate group of animals were injected subcutaneously with 20 micrograms of Porcine insulin. All animals were kept in the fasting state.

[3] = tested on: NOD mice; test: Insulitis in insulin-fed NOD mice (preliminary experiments, data not shown); settings: fed 1 mg, compared with PBS-fed NOD mice
Text: Therefore, oral administration of insulin to NOD mice appeared to be affecting the infiltration of immune system cells into the pancreas and thus halting disease progression by preserving beta cell function.

[4] = tested on: NOD mice; test: Aerosol administration of insulin on diabetes in NOD mice (Example 4); settings: 0 to 1 mg in aerosol form by nebulizer
Experimental: Insulin (0 to 1 mg as in Examples 1 and 2) will be administered to NOD mice as described above in Examples 1 and 2 except in aerosol form by nebulizer.

[5] = tested on: NOD mice; test: Treatment of initial stages of diabetes in hyperglycemic NOD mice (Example 5); settings: 0 to 1 mg, oral and aerosol, start at weeks 12-20 of age
Experimental: Insulin (0 to 1 mg as in Examples 1 and 2) will be administered to NOD mice which are suffering from hyperglycemia in an oral and aerosol form. The treatments will begin by weeks 12-20 of age, by which the serum glucose levels are at hyperglycemic concentrations in a certain percentage of animals prior to onset of diabetes.

[6] = 20 micrograms injected subcutaneously, fasting 7 week old mice
[7] = fed 1 mg orally, fasting 7 week old mice

| Substance | incidence of diabetes ([1]; all oral doses tested (10 micrograms, 100 micrograms, 1 mg)) | development of diabetes ([1]; fed 1 mg orally (gavage), twice a week until 9 weeks of age, then once a week, diabetic = blood glucose 220 or higher) | blood sugar on 10 representative animals ([1]; fed 1 mg, individual non-diabetic animals) [mg/dL] | development of diabetes ([1]; fed 10 micrograms orally, same schedule) | blood sugar in animals which developed diabetes ([1]; fed 10 micrograms, individual animals) | development of diabetes ([1]; fed 100 micrograms orally, same schedule) | blood sugar in animals that became diabetic ([1]; fed 100 micrograms, individual animals) | treated animals that failed to develop diabetes ([1]; highest oral dose (1 mg)) [%] | decrease in blood glucose level [2, 6] | period over which the glucose decrease persisted [2, 6] [h] | endocrinologic (metabolic) effects ([2]; fed 1 mg orally) | blood glucose after feeding [2, 7] | inflammatory immune system cells surrounding the pancreas (insulitis) [3] | prevention of the manifestation of symptoms (hyperglycemia) of Type 1 diabetes [4] | beta cell function [5] | serum glucose concentrations [5] |
| --- | --- | --- | --- | --- | --- | --- | --- | --- | --- | --- | --- | --- | --- | --- | --- | --- |
| Porcine insulin | lower incidence of diabetes; also recorded: reduced the numbers of these mice which subsequently went on to develop diabetes | none of the mice went on to develop diabetes; also recorded: no diabetes developed; also recorded: None of the animals developed diabetes | 130 | diabetes developed | 330 mg/dL and 420 mg/dL and 520 mg/dL | diabetes developed | 500 mg/dL and 290 mg/dL and 600 mg/dL and 450 mg/dL | 100 | approximately 80 mg % | 4 | no endocrinologic (metabolic) effects | no drop in the blood glucose | fewer inflammatory immune system cells surrounding the pancreas | effective in preventing the manifestation of symptoms | preservation of beta cell function | reduction in serum glucose concentrations to near normal levels |
| myelin basic protein | – | – | – | – | – | – | – | – | – | – | – | no drop in the blood glucose | – | – | – | – |
